Results on 15 molecules are retold here after patent US7345065B2, “Methods and compositions for alleviating pain” (Allergan, Inc., priority 2002, dated 2008).

“Also recorded” adds a separate entry of the source.

The test system of data set [1] is sulprostone-sensitized α-2A knockout mice. The data set is described as follows: Sulprostone sensitized pain (allodynia), α-2A knockout mice. Type of data set: in vivo, mouse. Here is the method: (§1) In brief, mice were divided into groups of 5-6 animals. Control mice were administered 5 ul DMSO while treated animals were injected with 5 ul DMSO containing various doses of the indicated agent. After intrathecal injection, each mouse was placed in an individual 13×8.5×13 cm Plexiglass enclosure with wood chips on the floor for observation. Allodynia was assessed once every five minutes over a 50 minute time period, with response recorded eight times in the 15 to 50 minute time frame. Allodynia was assessed by light stroking of the flank of the mice with a small paintbrush and ranked as follows: 0, no response; 1, mild squeaking with attempts to move away from the stroking probe; and 2, vigorous squeaking evoked by the stroking probe, biting at the probe and strong efforts to escape. The eight scores for each animal were added together, and the mean for the group determined to give an average total score.

Data set [2] deals with Chung model rats. The data set is described as follows: Chung rat nerve ligation model, tactile allodynia reversal (Von Frey). Type of data set: in vivo. The settings on record: for analgesia when co-administered with 0.3 μg/kg Compound 13: intraperitoneal, clonidine 30 μg/kg; for analgesia when co-administered with 0.3 μg/kg Compound 13 / analgesia, agonist given alone: Compound 2 100 μg/kg; for analgesia, agonist given alone: peripheral (intraperitoneal) administration, clonidine 100 μg/kg, Compound 3 1 to 1000 μg/kg; for long-term pain alleviation after extended dosing: gabapentin 3 mg/kg oral TID three days, amitriptyline 0.1, brimonidine 0.04, Compound 1 0.1 mg/kg/hour minipump seven days; for analgesia when co-administered with Compound 13 at 0.2 mg/kg/day: osmotic minipump; for allodynia reversal, enantiomers versus parent racemate: intraperitoneal administration, Chung model rats; for Peak allodynia reversal (dose): intraperitoneal injection, dose (3-300 μg/kg). Here is the method: The Chung rat nerve ligation model is a well accepted model of peripheral neuropathic pain. In the Chung model, partial ligation of left spinal nerves L-5 and L-6 produces a long-lasting hypersensitivity to light touch on the affected left foot. The hypersensitivity is similar to pain experienced by humans with the neuropathic condition of causalgia (Kim and Chung, Pain 50:355-363 (1992)).
Chung rat surgeries of about 20 minutes duration were performed essentially as follows. Male Sprague-Dawley rats weighing 100 to 120 grams were anesthetized with isofluorane. After shaving and preparing the surgical site with betadine, an incision was made from thoracic vertebra XIII down toward the sacrum, and muscle separated from spinal vertebra (left side) at the L4-S2 levels. The L6 vertebra were located, and the transverse process carefully removed with a small rongeur to visually identify the L4-L6 spinal nerves. L5 and L6 spinal nerves were isolated and tightly ligated with 6-0 silk thread; the wound was sutured after complete hemostasis was confirmed. A small amount of antibiotic ointment was applied to the incised area before transferring the animals to a plastic recovery cage under a regulated heat-temperature lamp. Animals were not treated with any topical or local anesthetics post-operatively.
Assessment of pain in Chung model rats was performed by applying a light tactile stimulus (Von Frey hair) to the affected surgical paw as follows. A 50% pain threshold was established by applying the Von Frey hair in an up-and-down manner to the plantar surface of the surgical paw with just enough force to bend them. A positive response was recorded if the paw was withdrawn sharply. The 50% paw withdrawal threshold was determined using the method of Dixon et al., Ann. Rev. Pharmacol. Toxicol. 20:441-462 (1980). The post-drug threshold was compared to the pre-drug threshold, and the precent reversal of tactile sensitivity calculated based on a normal threshold of 15.1 grams. The results were expressed as % allodynia reversal, reflecting the percentage reversal of pain threshold relative to a normal rat (100%).
Chung surgeries were performed, and pain assessed as described above. Drugs administered via osmotic minipump were delivered as follows. ALZET (Cupertino, Calif.) minipumps (Model #1007D) were implanted subcutaneously on the rats' back between the shoulder blades. Pumps were filled with test solution prior to surgery, which was performed with aseptic procedures and sterilized surgical instruments. After anesthetization with isoflorane and midline incision between the shoulder blades through the muscle, a subcutaneous pocket was exposed. The minipump was inserted into the exposed pocket, before stapling the wounds closed and allowing animals to recover under a warming light.
ALZET osmotic minipumps (model 1007D) hold a total volume of 100 μl and delivered drug at the set rat of 0.5 μl per hour the indicated time period. Drugs were administered at the indicated rate, typically 100 μg/hr/kg, dissolved in 50% DMSO, with the concentration of drug in the pump varied depending on animal weight. […]

Data set [3] has as its system Male Sprague-Dawley rats. The data set can be described thus: Sedative effects in rats (total activity, digicom analyzer chamber). Type of data set: in vivo, rat. Here is the method:
(§2) Sedative effects were analyzed by assessing exploratory behavior in a darkened chamber as follows. Mice were weighed, and test compound administered by intrathecal injection in a volume of 5 μl or by intraperitoneal injection in 1 ml/kg volume at the indicated dose. At predetermined time points corresponding with analgesia measurements 5 to 30 minutes following the injection, the animal's activity was determined automatically by placing the mouse in a digicom analyzer chamber (Omnitech Electronic; Columbus, Ohio). The digicom analyzer chamber contains photocell beams criss-crossing the box that are broken as the animal moves around; the chamber was modified for mice by raising the level of the floor. Computer analysis of total animal movement proceeded over a 5-minute time period. Any given animal was used at most twice for this protocol, as learned behavior can affect the data. All animals received at least two weeks rest between studies.
Male Sprague-Dawley rats that were not subject to surgery were used for assessment of sedative effects. Rats were weighed and compound administered by intravenous or intraperitoneal injection or given orally at the indicated dose. At a predetermined time point 5 to 30 minutes following injection, the animal's activity was determined automatically by placing the rat in a digicom analyzer chamber (Omnitech Electronic). Total activity was analyzed as described above.

The test system of data set [4] is sulprostone-sensitized wild type mice. The data set is described as follows: Sulprostone sensitized pain (allodynia), wild type mice. Type of data set: in vivo, mouse. On the procedure:
Non-specific α-adrenergic agonists were assayed in α-2A receptor deficient (“knockout”) mice (Hein et al., supra, 1999) using a mouse model of sulprostone sensitized pain in which allodynia is evoked by intrathecal administration of a selective prostaglandin E2 receptor agonist to conscious mice essentially as described in Minami et al., Pain 57:217-223 (1994). In this model, the pain response to stroking the flank with a paint brush is scored eight times over a 35 minute period starting 15 minutes following spinal administration of sulprostone and intrathecal or intraperitoneal administration of drug or control vehicle. Sulprostone elicits a “pain” score of 12-13 on a 16-point scale.
as §1, with “Assays for allodynia in wild type and α-2A knockout mice were performed essentially according to the method of Yaksh and Harty, J. Pharmacology Exp. Ther. 244: 501-507 (1998). In” for “In”

Data set [5] deals with α-2B heterozygous (−/+) and homozygous (−/−) knockout mice. The data set is described as follows: Sulprostone sensitized pain (allodynia), α-2B knockout mice. Type of data set: in vivo, mouse. Conditions: intraperitoneal; heterozygous and homozygous α-2B knockout; clonidine 500 ug/kg, Compound 3 100 ug/kg.
The test system of data set [6] is mice. The data set can be described thus: Sedative effects in mice (exploratory activity, digicom analyzer chamber). Type of data set: in vivo, mouse. Conditions: intraperitoneal, wild type mice; clonidine 500 ug/kg, Compound 3 100 ug/kg. Here is the method:
as §2

Where [7] appears, read: intraperitoneal, α-2A knockout mice (Compound 1 30 μg/kg; Compound 2 and PAC 100 μg/kg).
Where [8] appears, read: intraperitoneal injection, wild type mice (Compound 1 30 μg/kg; Compound 2 100 μg/kg).
[9] abbreviates: intrathecal injection (Compound 1: 1 μg), α-2A knockout mice.
Where [10] appears, read: intrathecal injection (Compound 1: 1 μg), wild type mice.
[11] abbreviates: subcutaneous osmotic minipump 0.1 mg/kg/hour, seven days.
Where [12] appears, read: rauwolscine 0.3 μg/kg i.p., Compound 8 by osmotic minipump.

Consider `CC1=CCCC1Cc1c[nH]c(=S)[nH]1` (stereo not drawn) [Compound 2], for which the analgesia entry in data set [1] (setting [7]) was “fully analgesic”. Also, in data set [2] (Chung rats), the “analgesia when co-administered with 0.3 μg/kg Compound 13” value is “significant analgesia” and the “analgesia, agonist given alone” value is given as “not analgesic”. For the same molecule, the sedative effects result in data set [3] (100 μg/kg Compound 2 co-administered with 0.3 μg/kg Compound 13) was “no significant sedative effects”. Besides, in data set [4] (setting [8]), the analgesia entry is “not analgesic”.

Regarding `CN(C)CCC=C1c2ccccc2CCc2ccccc21` [amitriptyline, reference compound], in data set [2], the “long-term pain alleviation after extended dosing” value (from here on “long-term pain alleviation”) was “the allodynia returned completely prior to or following cessation of treatment”.

In the case of `Cc1c(N=C2NCCN2)ccc2c1NCCO2` [Compound 1], the analgesia entry in data set [1] (setting [7]) was “significant analgesia without sedation”; in data set [1] (setting [9]), “did not produce analgesia”; in data set [4] (setting [8]) it was “failed to produce analgesia separable from sedation”; in data set [4] (setting [10]), “significant analgesia separable from sedation”. For the same molecule, the “long-term pain alleviation” value in data set [2] is on record as “the allodynia returned completely prior to or following cessation of treatment”. The “analgesia when co-administered with Compound 13 at 0.2 mg/kg/day” value in data set [2] (Chung rats) was “greater analgesia was observed during the dosing period, and this analgesic effect continued after completion of drug administration”. Moreover, in data set [2] (Chung rats), the “analgesia, agonist given alone” value is recorded as “neither compound was significantly analgesic at non-sedating doses”.

Consider `O=C1c2ccccc2CCC1Cc1c[nH]c(=S)[nH]1` (stereo not drawn) [Compound 10], for which the “allodynia reversal, enantiomers versus parent racemate” value in data set [2] is given as “allodynia reversal was obtained; also recorded: as effective as parent racemic mixture in relieving pain”.

As for `CCC1=CC(Cc2c[nH]cn2)CCC1` (stereo not drawn) [Compound 9], in data set [2] (setting [11]), the “allodynia alleviated during the period of drug treatment” value was 60-80% and the “persistence of analgesic effects after treatment” value is recorded as “continued for over a month after treatment was concluded”.

`Clc1cccc(CNC2=NCCS2)c1Cl` [Compound 5]: the “Peak allodynia reversal (dose)” value in data set [2] is given as 77% +/− 8.3%.

`Brc1c(NC2=NCCN2)ccc2nccnc12` [brimonidine]: the “analgesic effect in α-2B knockout mice” value in data set [5] was “analgesic”. Also, the analgesia entry was “significant analgesia without sedation” in data set [1] (setting [7]), “did not produce analgesia” in data set [1] (setting [9]), “failed to produce analgesia separable from sedation” in data set [4] (setting [8]) and “significant analgesia separable from sedation” in data set [4] (setting [10]). For the same molecule, the “long-term pain alleviation” value in data set [2] is on record as “the allodynia returned completely prior to or following cessation of treatment”. The “analgesia when co-administered with Compound 13 at 0.2 mg/kg/day” value in data set [2] (Chung rats) was “greater analgesia was observed during the dosing period, and this analgesic effect continued after completion of drug administration”.

Turning to `Fc1ccc(Br)c(CNC2=NCCO2)c1` [Compound 14], the “Peak allodynia reversal (dose)” value in data set [2] is given as 77% +/− 6.2%.

In the case of `COC(=O)[C@H]1[C@H]2C[C@H]3c4[nH]c5ccccc5c4CCN3C[C@H]2CC[C@@H]1O` [rauwolscine, reference compound], in data set [1] (rauwolscine 0.3 μg/kg intraperitoneal, α-2A knockout mice), the “effect on the analgesic effect of PAC (100 μg/kg i.p.)” value was “blocked”. In addition, in data set [2] (setting [12]), the “inhibition of the analgesic activity of Compound 8, fourth day of treatment” value is recorded as “not on the fourth day” and the “inhibition of the analgesic activity of Compound 8, third day of treatment” value is “inhibited the analgesic activity of Compound 8 when injected on the third day”.

Consider `Fc1c(Cl)cccc1CNC1=NCCO1` [Compound 6], for which, in data set [2], the “Peak allodynia reversal (dose)” value is listed as 92% +/− 5.2%.

As for `Nc1cc(Cl)c(N=C2NCCN2)c(Cl)c1` [PAC, para-amino clonidine, reference compound], the analgesia result in data set [1] (setting [7]) is “analgesic”. For the same molecule, the “analgesia, agonist given alone” value in data set [2] (Chung rats) is listed as “neither compound was significantly analgesic at non-sedating doses”.

In the case of `Clc1cccc(Cl)c1N=C1NCCN1` [clonidine, reference compound], the “analgesic effect in α-2B knockout mice” value in data set [5] is “alleviated the analgesia in both heterozygous and homozygous α-2B knockout strains”. For the same molecule, the analgesia entry in data set [1] (setting [7]) is “significant analgesia without sedation”; in data set [1] (setting [9]), “did not produce analgesia”; in data set [2] (intrathecal injection, Chung rats) it was “significant analgesia separable from sedation”; in data set [4] (setting [8]) it was “failed to produce analgesia separable from sedation”; in data set [4] (setting [10]), “significant analgesia separable from sedation”. Besides, the “analgesia when co-administered with 0.3 μg/kg Compound 13” value in data set [2] (Chung rats) is “dramatic allodynia reversal”. In data set [3] (clonidine 30 μg/kg intraperitoneal), the “sedation (activity)” value is “reduces activity”. Moreover, the sedation entry in data set [3] (clonidine 100 μg/kg intraperitoneal) was “extremely sedating”. The sulprostone-induced tactile allodynia result in data set [4] (intraperitoneal, wild type mice, clonidine 500 ug/kg, Compound 3 100 ug/kg) was “alleviated sulprostone-induced tactile allodynia”. The concomitant sedation result in data set [6] is listed as “produced concomitant sedation”.

Take `Cc1cccc(CNC(=S)NCCO)c1F` [Compound 7]: in data set [2], the “Peak allodynia reversal (dose)” value is 60% +/− 8.0%.

Take `O=c1[nH]cc(C[C@H]2CCc3cc(F)ccc32)[nH]1` [Compound 12]: the “allodynia reversal, enantiomers versus parent racemate” value in data set [2] is recorded as “at least as effective as the parent compound in reducing allodynia at all doses tested”.

In the case of `NCC1(CC(=O)O)CCCCC1` [gabapentin, reference compound], in data set [2], the “long-term pain alleviation” value is reported as “the allodynia returned completely prior to or following cessation of treatment”.
